Assay results reported in patent US8097650B2, “Method of treating a condition associated with phosphorylation of TASK-1” (The Trustees of Columbia University In The City of New York, priority 2005, dated 2012).

How the values were obtained:
TASK-1 = target: T1, TASK-1 (Mus musculus, UniProt O35111); experiment: C-PAF-sensitive steady-state current in murine ventricular myocytes (voltage clamp); format: cell-based; settings: for C-PAF-sensitive current density: held at −70 mV
T1 construct: endogenous in cells; host or cells: adult mouse ventricular myocytes (C57/B16 background; WT or PAFR KO)
Description: Adult mice, 2-3 months old, were anesthetized with ketamine/xylazine and their hearts were removed according to protocols approved by the Columbia University-IACUC. Experiments were performed on single rod-shaped, quiescent ventricular myocytes dissociated using a standard retrograde collagenase perfusion (Kuznetsov V et al. (1995) Circ Res 76: 40-52) from hearts of mice that were either wild-type (WT), or PAFR knockouts (KO). Both WT and KO mice were bred on a C57/B16 background. The derivation of the KO mice has been described previously (Hoffman, B F et al.(1996) J Cardiovasc Electrophysiol 7:120-133).
Prior to electrophysiological measurements, cells were placed into the perfusion chamber and superfused at room temperature with Tyrode's buffer (in mM: NaCl, 140; KCl, 5.4; CaCl2 1; MgCl2, Hepes, 5; Glucose, 10; pH 7.4). The whole-cell patch clamp technique was used with pipettes having resistances of 1.5-3 MΩ (intracellular solution, in mM: aspartic acid, 130; KOH, 146; NaCl, 10; CaCl2, 2; EGTA, 5; Hepes, 10; MgATP, 2; pH 7.2). Solutions of C-PAF, the PAFR antagonist, CV-6209 (Biomol) and the PKC inhibitor, bisindolylmaleimide I (BIM I; Calbiochem) were prepared in water and diluted in Tyrode's before use. […] A custom-made fast perfusion device was used to exchange the solution around the cell within 1 s (DiFrancesco et al. (1986) J Physiol 377: 61-88).
Current and voltage protocols were generated using Clampex 7.0 software applied by means of an Axopatch 200B amplifier and a Digidata 1200 interface (Axon Instruments). During voltage clamp, steady state current traces were acquired at 500 Hz and final filtered at 10 Hz. During current clamp, membrane voltage was acquired at 5 KHz and filtered at 1 KHz. Ramp clamps were conducted by imposing a voltage ramp (14 mV/s) at a 500 Hz acquisition rate with 1 kHz filtering. Data were analyzed using pCLAMP 8.0 (Axon) and Origin 6.0 (Microcal) and are presented as mean±SEM. Steady-state current was determined by computer calculation of average current over a time period of at least 5 s. In all experiments, the n value indicates the number of myocytes studied, and represents pooled data from at least 2 (voltage clamp) or 3 (current clamp) animals. Student's t-test, one-way ANOVA and χ^2 tests were used; a value of p<0.05 was considered statistically significant. Records have been corrected for the junction potential, which was measured to be 9.8 mV.

[1] = tested on: mouse ventricular myocytes; experiment: Repolarization abnormalities in mouse ventricular myocytes paced at 1 Hz with PKCε peptides; format: cell-based
Description: Mouse ventricular myocytes were isolated using a retrograde coronary perfusion method previously published (Kuznetsov V et al. (1995) Circ Res 76: 40-52). All the experiments were carried out according to the guidelines issued by the IACUC of Columbia University. Adult mice 2 or 3 months old, were anaesthetized with a xylazine and ketamine mix and heparinized, the heart was quickly removed and the ascending aorta was connected to the outlet of a Langendorff column and perfused with 20-25 ml of a buffer solution (37° C.) containing (mM):NaCl, 112; KCl, 5.4; NaHCO3, 4.2; MgCl2, 1.6; HEPES, 20; glucose, 5.4; NaH2PO4, 1.7; taurine, 10; L-glutamine, 4.1; MEM amino acids solution, 2%; MEM vitamin solution, 1%; adjusted to pH 7.4, and equilibrated with 100% O2. Next, the heart was perfused with an enzyme solution containing collagenase (0.2 mg/ml; Worthington Type II) and trypsin (0.04 mg/ml) at 35° C. for 10-12 min. After this perfusion, the atria were removed and the ventricles minced and transferred to a 50 ml flask with an enzyme solution containing collagenase (0.45 mg/ml), trypsin (0.08 mg/ml), Ca^2+ (0.75 mM) and bovine serum albumin (BSA; 4.8 mg/ml). The flask was shaken vigorously for 5-10 min at 32° C. before the supernatant was removed and the cells were collected by centrifugation, this operation was repeated two or three times and additional disaggregated cells were collected. After centrifugation, the myocytes were resuspended in the buffer solution containing Ca^2+ (0.75 mM) and BSA and stored at room temperature until use. Rod-shaped, Ca^2+-tolerant myocytes, obtained with this procedure, were used within 6 h of dissociation. Measurements were performed only on quiescent myocytes with clear striations
The myocyte suspension or the coverslip with CHO cells was placed into a perfusion chamber, mounted on the stage of an inverted microscope. Unless otherwise indicated, CHO cells were superfused at room temperature with standard external Tyrode's buffer, containing (mM): NaCl, 140; KCl, 5.4; CaCl2, 1; MgCl2, 1; HEPES, 5; glucose, 10; adjusted to pH 7.4. Recordings were begun after the current reached a stable baseline (usually 3 to 4 min after initial cell rupture). In myocytes, TASK-1 current is small and exists in the presence of numerous larger K^+ currents. In order to increase the inward component of TASK-1 current and to block other potassium currents in myocytes, a modified high K^+ external solution (modified Tyrode's) was used to reduce outward rectification of TASK-1 current. The composition of this solution-was (in mM): NaCl, 100; KCl, 50; CaCl2, 1; MgCl2, 1; HEPES, 5; glucose, 10; tetraethylammonium (TEA), 1; CsCl, 5; adjusted to pH 7.4. Membrane potential and current were measured in the whole cell configuration using borosilicate glass pipettes with a tip resistance between […] and filled with a pipette solution containing (mM): aspartic acid, 130; KOH, 146; NaCl, 10; CaCl2, 2; EGTA, 5; HEPES, 10; MGATP, 2; pH 7.2. The stock solutions of C-PAF and of the PKC inhibitor, bisindolylmaleimide (BIM-I; Calbiochem), were prepared in water and diluted to the final concentrations in Tyrode's or modified Tyrode's, as appropriate. The PKC activator, PMA, was prepared in DMSO and then diluted in Tyrode's. […] Myocytes treated with the peptides were monitored continuously beginning immediately after rupture to detect the occurrence of any arrhythmias during dialysis of the peptide. Application of C-PAF to cells treated with the inhibitor peptide was started after the peptide had been permitted to dialyse into the cell (8-10 min after rupture for CHO or 10-12 min after rupture for myocytes).
The current and the voltage protocols were generated using Clampex 8.0 software applied by means of an Axopatch 200-B and a Digidata 1200 interface (Axon Instruments). In current clamp mode, for recording action potentials, the signals were filtered at 1 KHz (low pass Bessel filter) and acquired at a sampling rate of 5 KHz. […]

T1 sequence (O35111 whole entry): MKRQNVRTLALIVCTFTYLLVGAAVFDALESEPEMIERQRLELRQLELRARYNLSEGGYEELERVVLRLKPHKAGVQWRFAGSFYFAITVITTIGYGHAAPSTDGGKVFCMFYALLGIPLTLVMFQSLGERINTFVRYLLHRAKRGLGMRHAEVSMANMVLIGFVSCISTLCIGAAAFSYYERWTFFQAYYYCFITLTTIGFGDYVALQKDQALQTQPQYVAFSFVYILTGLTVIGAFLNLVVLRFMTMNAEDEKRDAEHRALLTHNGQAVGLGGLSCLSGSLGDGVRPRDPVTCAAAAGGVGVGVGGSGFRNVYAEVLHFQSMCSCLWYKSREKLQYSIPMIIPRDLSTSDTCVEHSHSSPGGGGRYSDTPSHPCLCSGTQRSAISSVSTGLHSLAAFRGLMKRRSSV

Q: How did the decrease in conductance (TASK-1; +10 mV step, cells held at −10 mV) turn out when `CCCCCCCCCCCCCCCCOC[C@H](COP(=O)([O-])OCC[N+](C)(C)C)OC(=O)NC` [C-PAF, carbamyl-platelet-activating factor] was run?
A: 17.5±3.9%

Q: What about the “reversal potential of C-PAF-sensitive current” value (TASK-1; extracellular K+ 50 mM, Cs+ 5 mM, TEA 1 mM) of the same compound?
A: −20.4±3 mV

Q: What about the C-PAF-sensitive current density (TASK-1; control cells) of the same compound?
A: 0.047±0.01 pA/pF

Q: What about the C-PAF-sensitive current density (TASK-1; in the presence of Cs+ 5 mM) of the same compound?
A: 0.047±0.03 pA/pF

Q: And the “time to peak of C-PAF-sensitive current” value (TASK-1; −70 mV)?
A: 74 ± 13 s

Q: And the “cells with repolarization abnormalities” value ([1]; C-PAF 2 min, no peptide in pipette)?
A: 5 of 7

Q: And the repolarization abnormalities ([1]; C-PAF, PKCε-specific inhibitor peptide 100 nM in pipette)?
A: failed to induce repolarization abnormalities in any of the 8 cells

Q: And the “cells with abnormalities during repolarization” value ([1]; C-PAF, scrambled peptide 100 nM in pipette)?
A: 14 of 19
